Experimental data as given in patent US20230202985A1, “Indoles, Indazoles, and Related Analogs for Inhibiting YAP/TAZ-TEAD” (THE KATHOLIEKE UNIVERSITEIT LEUVEN, priority 2021, published 2023).

Experiments:
Type in all cases: cell-based
[1] = tested on: YAP/TAZ-TEAD transcription; assay: Reporter gene assay for measuring the inhibition of YAP/TAZ-TEAD transcription (TEAD-responsive element luciferase reporter in Hek293T cells); details: Homo sapiens, HEK-293T; Hek293T cells transfected with TEAD-responsive luciferase reporter, 24 hours incubation
Description: Hek293T cells are cultured in DMEM supplemented with 10% fetal bovine serum, Sodium pyruvate, Sodium bicarbonate, L-glutamine. The cells are harvested and transiently transfected with TEAD-responsive element luciferase reporter. Transfected cells are plated in 384-wells plate containing pre-diluted compounds. After 24 hours incubation at 37° C./5% CO2, assay plates were cooled down to RT and levelled to an equal volume per well, prior to the addition of 25 uL luciferase substrate SteadyLite (Perkin Elmer)/well. The plate was shaken for 10 min at 600 rpm, centrifuged for 1 min at 500 rpm and measured with an Envision reader (PerkinElmer). The amount of relative light units produced by the TEAD reporter is used to calculated percent of inhibition.
The percent of reporter inhibition was calculated in the presence of a positive control inhibitor (100% inhibition) versus a condition with the presence of the vehicle basal activity of the reporter (0% inhibition). The ability of a test compound to inhibit this activity was determined as:
Percentage inhibition=[1−((RLU determined in the presence of vehicle−RLU determined for sample with test compound present) divided by (RLU determined in the presence of vehicle−RLU determined for sample with positive control inhibitor))]*100
The activities of example compounds tested are depicted in Table 6. The activity ranges A, B and C refer to IC50 values in the reporter gene assay as follows: “A”: IC50<1 μM; “B”: 1 μM≤IC50≤20 μM and “C”: IC50>20 μM; NT=not tested.

NCI-H226 = assay: Mesothelioma cell line proliferation assay (ATPlite), NCI-H226; details: Homo sapiens, 144 h; NCI-H226 cells, 6 days with compound, cell viability by ATPlite
Description: (§1) Mesothelioma cell lines, NCI-H226 and NCI-H2052 (all sourced from the ATCC cell culture collection) are plated in 96-well plates (Corning® 96 Well White Polystyrene Microplate clear flat bottom, white polystyrene (TC-Treated)), at 1500 cells/well in full medium (RPMI 1640 ATCC modification with L-glutamine, HEPES, Phenol Red, Sodium Pyruvate, High glucose, Low sodium bicarbonate and 10% fetal bovine serum). Cells are incubated overnight at 37° C. in an incubator with 5% CO2. Then compounds, dissolved in DMSO, are added in dose-response. Cells are incubated with compound dilutions for another 6 days at 37° C. in an incubator with 5% CO2. Cell viability is quantitated using the ATPlite kit (Perkin-Elmer) and the luminescence is read-out using an Envision instrument (Perkin-Elmer). The amount of relative light units produced using the ATPlite kit is used to calculated percent of inhibition.
(§2) The activities of some example compounds are depicted in Table 7. The activity ranges A, B and C refer to EC50 values in the mesothelioma cell line proliferation assay as described as follows: “A”: EC50<1 μM; “B”: 1 μM≤EC50≤10 μM and “C”: EC50>10 μM; NT: not tested.

NCI-H2052 = assay: Mesothelioma cell line proliferation assay (ATPlite), NCI-H2052; details: Homo sapiens, 144 h; NCI-H2052 cells, 6 days with compound, cell viability by ATPlite
Description: as §1, §2

SMILES	EC50 [1]	EC50 (NCI-H226)	EC50 (NCI-H2052)
C=CC(=O)NCc1nn(-c2ccc(C(F)(F)F)cc2)c2ccccc12 [compound 1, N-((1-(4-(trifluoromethyl)phenyl)-1H-indazol-3-yl)methyl)acrylamide]	< 1 µM	< 1 µM	< 1 µM
C=CC(=O)NCc1nn(-c2ccc(C(F)(F)F)cc2)c2ccc(OC[C@H]3CCOC3)cc12 (single isomer, unassigned) [compound 47]	< 1 µM	< 1 µM	< 1 µM
CS(=O)(=O)NCc1nn(-c2ccc(C(F)(F)F)cc2)c2ccccc12 [compound 3, N-((1-(4-(trifluoromethyl)phenyl)-1H-indazol-3-yl)methyl)methanesulfonamide]	< 1 µM	> 10 µM	> 10 µM
C=CC(=O)NCc1nn(-c2ccc(C(F)(F)F)cc2)c2ccc(Oc3ccccc3)cc12 [compound 49, N-[[5-phenoxy-1-[4-(trifluoromethyl)phenyl]indazol-3-yl]methyl]prop-2-enamide]	< 1 µM	< 1 µM	< 1 µM
C=CC(=O)NCc1nn(-c2ccc(C(F)(F)F)cc2)c2ccc(OCC3CC3)cc12 [compound 66, N-[[5-(cyclopropylmethoxy)-1-[4-(trifluoromethyl)phenyl]indazol-3-yl]methyl]prop-2-enamide]	< 1 µM	< 1 µM	< 1 µM
C=CC(=O)NCc1nn(-c2ccc(C(F)(F)F)cc2)c2ccc(OCC3CCOC3)cc12 (racemic) [compound 46, N-[[5-[[rac-tetrahydrofuran-3-yl]methoxy]-1-[4-(trifluoromethyl)phenyl]indazol-3-yl]methyl]prop-2-enamide]	< 1 µM	< 1 µM	< 1 µM
C=CC(=O)NCc1cn(-c2ccc(C(F)(F)F)cc2)c2ccccc12 [compound 27, N-((1-(4-(trifluoromethyl)phenyl)-1H-indol-3-yl)methyl)acrylamide]	< 1 µM	> 10 µM	1 to 10 µM

Further lines, results first:

EC50 [1]	EC50 (NCI-H226)	EC50 (NCI-H2052)	SMILES
< 1 µM	< 1 µM	< 1 µM	C=CC(=O)NCc1cc2ccccc2n1-c1ccc(C(F)(F)F)cc1 [compound 29, N-((1-(4-(trifluoromethyl)phenyl)-1H-indol-2-yl)methyl)acrylamide]
< 1 µM	< 1 µM	< 1 µM	C=CC(=O)NCc1nn(-c2ccc(C(F)(F)F)cc2)c2ccc(OCC#N)cc12 [Cpd. No. 43, N-[[5-(cyanomethoxy)-1-[4-(trifluoromethyl)phenyl]indazol-3-yl]methyl]prop-2-enamide]
< 1 µM	< 1 µM	< 1 µM	C=CC(=O)NCc1nn(-c2ccc(C(F)(F)F)cc2)c2ccc(OCc3ccccc3)cc12 [compound 54, N-[[5-benzyloxy-1-[4-(trifluoromethyl)phenyl]indazol-3-yl]methyl]prop-2-enamide]
< 1 µM	< 1 µM	< 1 µM	C=CC(=O)NCc1nn(-c2ccc(OC(F)(F)F)cc2)c2ccccc12 [Cpd. No. 4, N-((1-(4-(trifluoromethoxy)phenyl)-1H-indazol-3-yl)methyl)acrylamide]
